≈ marks a conversion by molar mass, not a printed value.
How the values were obtained:
[1] = system: P. falciparum K1 strain (Thailand resistant to chloroquine); assay: semiautomated microdilution assay, [3H]-hypoxanthine incorporation, K1 strain; format: cell-based, Plasmodium falciparum; details: K1 strain, 72 h incubation
How it was run: (§1)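 Logit regression analysis was used to estimate IC50 values. Parasites were intraerythrocytic forms from asynchronous stock cultures, and compounds were tested by semiautomated microdilution.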

[2] = system: P. falciparum NF54 strain (sensitive to standard antimalarials); assay: semiautomated microdilution assay, [3H]-hypoxanthine incorporation, NF54 strain; format: cell-based, Plasmodium falciparum; details: NF54 strain, 72 h incubation
How it was run: as §1

[3] = system: ANKA strain of P. berghei; assay: single dose STI in vivo screen in infected mice; set-up: species or system Plasmodium berghei; details: for Activity (%) po / Activity (%) sc / Activity (%) SSVpo / Activity (%) 10 mg/kg SSV po / Activity (%) 3 mg/kg SSV po: percent reduction in parasitemia day 3 post-infection; for Activity (%) po / Survival (days) po: single 10 mg/kg po in 3% ethanol and 7% Tween 80; for Activity (%) po / Activity (%) sc / Activity (%) SSVpo: mice; for Activity (%) sc / Survival (days) sc: single 10 mg/kg sc in 3% ethanol and 7% Tween 80; for Activity (%) SSVpo: single po dose in standard suspending vehicle (SSV); for Survival (days) po / Survival (days) sc / Survival (days) SSVpo: untreated control 5.6 ± 0.3; for Survival (days) SSVpo: single po dose in SSV; for Activity (%) 10 mg/kg SSV po / Survival (days) 10 mg/kg SSV po: single 10 mg/kg po in SSV; for Activity (%) 3 mg/kg SSV po: single 3 mg/kg po in SSV
How it was run: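 Groups of 3-5 Moro SPF or NMRI mice infected with the ANKA strain of P. berghei received a single dose of trioxolane on day one post-infection. The compound was given in 3% ethanol and 7% Tween 80 or in SSV (0.5% w/v CMC, 0.5% v/v benzyl alcohol, 0.4% v/v Tween 80, 0.9% w/v sodium chloride in water). Antimalarial activity was scored as percent reduction in parasitemia on day three and as survival time versus untreated controls. Survival to day 30 counted as cure.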

SMILES	IC50 (ng/ml) K1 [1] [ng/mL]	IC50 (ng/ml) NF54 [2] [ng/mL]	Activity (%) po [3] [%]	Activity (%) sc [3] [%]	Activity (%) SSVpo [3] [%]	Survival (days) po [3] [days]	Survival (days) sc [3] [days]	Survival (days) SSVpo [3] [days]	Activity (%) 10 mg/kg SSV po [3]	Survival (days) 10 mg/kg SSV po [3]	Activity (%) 3 mg/kg SSV po [3] [%]
O=C(NC[C@H]1CC[C@]2(CC1)OOC1(O2)C2CC3CC(C2)CC1C3)c1ccncc1 (stereo partly drawn) [OZ255]	2.2 (≈ 5.52 nM)	1.1 (≈ 2.76 nM)	99.61	99.92	99.54	9.0	10.0	8.7	–	–	–
CS(=O)(=O)NC[C@H]1CC[C@]2(CC1)OOC1(O2)C2CC3CC(C2)CC1C3 (stereo partly drawn) [OZ257]	42 (≈ 113 nM)	21 (≈ 56.5 nM)	99.00	99.84	99.49	8.3	9.7	7.7	–	–	–
Clc1ccc2c(NCCNC3CCC4(CC3)OOC3(O4)C4CC5CC(C4)CC3C5)ccnc2c1 (stereo not drawn) [OZ258]	5.8 (≈ 12 nM)	5.2 (≈ 10.7 nM)	75	99.95	70	6.0	10.7	6.0	–	–	–
CCOC(=O)CCC[C@H]1CC[C@]2(CC1)OOC1(O2)C2CC3CC(C2)CC1C3 (stereo partly drawn) [OZ260]	5.6 (≈ 14.8 nM)	4.3 (≈ 11.4 nM)	72	81	51	6.7	7.7	7.0	–	–	–
O=C(O)CCC[C@H]1CC[C@]2(CC1)OOC1(O2)C2CC3CC(C2)CC1C3 (stereo partly drawn) [OZ261]	39 (≈ 111 nM)	18 (≈ 51.4 nM)	61	92	47	7.0	8.0	7.0	–	–	–
CC(=O)NC[C@H]1CC[C@]2(CC1)OOC1(O2)C2CC3CC(C2)CC1C3 (stereo partly drawn) [OZ262]	0.63 (≈ 1.88 nM)	0.84 (≈ 2.5 nM)	96	99.39	98	11.7	10.0	12.3	–	–	–
O=C(NC[C@H]1CC[C@]2(CC1)OOC1(O2)C2CC3CC(C2)CC1C3)c1c[nH]cn1 (stereo partly drawn) [OZ263]	0.84 (≈ 2.17 nM)	1.1 (≈ 2.84 nM)	99.53	99.92	99.45	13.0	11.0	13.3	–	–	–
O=C(NC[C@H]1CC[C@]2(CC1)OOC1(O2)C2CC3CC(C2)CC1C3)c1cc[n+]([O-])cc1 (stereo partly drawn) [OZ264]	1.2 (≈ 2.9 nM)	1.5 (≈ 3.62 nM)	99.61	99.97	99.92	11.0	13.7	10.3	–	–	–
NC(=O)NC[C@H]1CC[C@]2(CC1)OOC1(O2)C2CC3CC(C2)CC1C3 (stereo partly drawn) [OZ265]	0.56 (≈ 1.66 nM)	1.6 (≈ 4.76 nM)	99	99.67	98	13.0	11.7	9.7	–	–	–
CN(C)C(=O)NC[C@H]1CC[C@]2(CC1)OOC1(O2)C2CC3CC(C2)CC1C3 (stereo partly drawn) [OZ266]	1.1 (≈ 3.02 nM)	1.5 (≈ 4.12 nM)	99	99.75	99.39	13.7	11.7	11.7	–	–	–
CN1CCN(C(=O)NC[C@H]2CC[C@]3(CC2)OOC2(O3)C3CC4CC(C3)CC2C4)CC1 (stereo partly drawn) [OZ267]	0.20 (≈ 0.477 nM)	0.34 (≈ 0.81 nM)	99.92	99.97	99.89	8.3	9.3	8.7	–	–	–
NC(=O)C(=O)NC[C@H]1CC[C@]2(CC1)OOC1(O2)C2CC3CC(C2)CC1C3 (stereo partly drawn) [OZ268]	0.44 (≈ 1.21 nM)	0.71 (≈ 1.95 nM)	99.86	99.92	99.47	9.3	9.7	13.3	–	–	–
NC[C@H]1CC[C@@]2(CC1)OOC1(O2)C2CC3CC(C2)CC1C3 (stereo partly drawn) [OZ269]	0.32 (≈ 1.09 nM)	0.61 (≈ 2.08 nM)	98	99.92	86	10.7	9.0	11.3	–	–	–
O=C(NC[C@H]1CC[C@]2(CC1)OOC1(O2)C2CC3CC(C2)CC1C3)c1cccc[n+]1[O-] (stereo partly drawn) [OZ270]	0.85 (≈ 2.05 nM)	1.3 (≈ 3.14 nM)	99.17	99.81	99.47	13.7	11.3	12.3	–	–	–
FC1(c2ccccc2)CCC2(CC1)OOC1(O2)C2CC3CC(C2)CC1C3 (stereo not drawn) [OZ274]	5.1 (≈ 14.2 nM)	5.7 (≈ 15.9 nM)	–	–	–	–	–	–	11/ND %	7.0/ND days	–
OC1(Cc2ccccn2)CCC2(CC1)OOC1(O2)C2CC3CC(C2)CC1C3 (stereo not drawn) [OZ275]	0.66 (≈ 1.78 nM)	0.74 (≈ 1.99 nM)	–	–	–	–	–	–	68/ND %	7.3/ND days	–
O=C(C[C@H]1CC[C@]2(CC1)OO[C@]1(O2)C2CC3CC(C2)CC1C3)Nc1nnn[nH]1 [OZ278]	23 (≈ 59.1 nM)	39 (≈ 100 nM)	–	–	–	–	–	–	56/ND %	7.3/ND days	–
CC(C)(N)CNC[C@H]1CC[C@]2(CC1)OOC1(O2)C2CC3CC(C2)CC1C3 (stereo partly drawn) [OZ287]	0.49 (≈ 1.34 nM)	0.83 (≈ 2.28 nM)	–	–	–	–	–	–	95%	8.3 days	68
c1ccc(CNC[C@H]2CC[C@]3(CC2)OO[C@]2(O3)C3CC4CC(C3)CC2C4)nc1 [OZ292]	0.19 (≈ 0.494 nM)	0.26 (≈ 0.676 nM)	–	–	–	–	–	–	74%	7.0 days	46
O=CN1CCN(C(=O)C[C@H]2CC[C@]3(CC2)OO[C@]2(O3)C3CC4CC(C3)CC2C4)CC1 [OZ294]	0.39 (≈ 0.932 nM)	0.63 (≈ 1.51 nM)	–	–	–	–	–	–	–	8.6 days	70
